Laboratory results published in US5032577A, “Peptidylaminodiols” (Abbott Laboratories, priority 1987, dated 1991).

What follows are compounds tested against T1, human renal renin (Homo sapiens, UniProt P00797) (assay: Inhibition of human renal renin in vitro; angiotensin I formed measured by radioimmunoassay). Details: not given.
T1 construct: human renal renin, free from acid proteolytic activity; from tissue
T1 sequence (P00797 67-406): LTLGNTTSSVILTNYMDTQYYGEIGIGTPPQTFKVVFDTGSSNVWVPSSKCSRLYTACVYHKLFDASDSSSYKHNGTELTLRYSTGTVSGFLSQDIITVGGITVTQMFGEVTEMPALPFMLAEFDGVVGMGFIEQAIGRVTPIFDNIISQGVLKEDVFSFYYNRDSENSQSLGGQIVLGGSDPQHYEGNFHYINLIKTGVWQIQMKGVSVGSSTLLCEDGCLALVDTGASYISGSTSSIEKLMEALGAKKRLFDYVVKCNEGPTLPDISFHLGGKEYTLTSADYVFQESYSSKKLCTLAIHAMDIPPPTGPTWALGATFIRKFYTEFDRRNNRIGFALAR
Assay type: biochemical

SMILES | IC50
CC(C)C[C@@H](O)[C@H](O)[C@H](CC1CCCCC1)NC(=O)[C@H](Cc1c[nH]cn1)NC(=O)[C@H](Cc1ccccc1)NC(=O)OC(C)(C)C [Example 17, Boc-Phe-His Amide of 2(S)-Amino-l-cyclohexyl-3(R),4(R)-dihydroxy-6-methylheptane] | 35 nM
COc1ccc(C[C@H](N)C(=O)N[C@@H](CC(C)C)C(=O)N[C@@H](CC2CCCCC2)[C@@H](O)[C@@H](O)CC(C)C)cc1 [Example 55, H-(4-OCH3)Phe-Leu Amide of 2(S)-Amino-1-cyclohexyl-3(R),4(S)-dihydroxy-6-methylheptane] | 2 nM
CC(C)C[C@H](NC(=O)[C@H](Cc1ccccc1)NCCC#N)C(=O)N[C@@H](CC1CCCCC1)[C@@H](O)[C@@H](O)CC(C)C [Example 58, [N-(2-Cyanoethyl)]Phe-Leu Amide of 2(S)-Amino-1-cyclohexyl-3(R),4(S)-dihydroxy-6-methylheptane] | 7 nM

Same assay, conditions: human renal renin free from acid proteolytic activity, renin substrate human angiotensinogen, 37° C., pH 6.0

SMILES | IC50
CC(C)C[C@H](NC(=O)OC(C)(C)C)C(=O)N[C@@H](Cc1c[nH]cn1)C(=O)N[C@@H](CC1CCCCC1)[C@@H](O)[C@@H](O)CC(C)C [Example 31, Boc-Leu-His Amide of 2(S)-Amino-l-cyclohexyl-3(R),4(S)-dihydroxy-6-methylheptane] | 1 nM
CC(C)C[C@H](O)[C@H](O)[C@H](CC1CCCCC1)NC(=O)[C@H](Cc1c[nH]cn1)NC(=O)[C@H](Cc1ccccc1)NC(=O)OC(C)(C)C [Example 15, Boc-Phe-His Amide of 2(S)-Amino-l-cyclohexyl-3(R),4(S)-dihydroxy-6-methylheptane] | 1.5 nM
CC(C)[C@H](O)[C@H](O)[C@H](CC1CCCCC1)NC(=O)[C@H](Cc1c[nH]cn1)NC(=O)[C@H](Cc1ccccc1)NC(=O)OC(C)(C)C [Example 46, Boc-Phe-His Amide of 2(S)-Amino-l-cyclohexyl-3(R),4(S)-dihydroxy-5-methylhexane] | 1.5 nM
